From PubChem BioAssay AID2423 (Broad Institute, 2010)
Inconclusive results are not listed. Activity calls are given as the source filed them. How the calls were made is not given here.

System: C. albicans CaCi-8 + fluconazole, Alamar Blue growth, 48 h
Experiment: resistant C. albicans growth inhibition with fluconazole, dose response, CaCi-8 strain, Alamar Blue fluorescence (AID 2423)

CCc1ccccc1NC(=S)N=Nc1c(O)n(C)c2ccc(S(=O)(=O)N3CCOCC3)cc12
EC50: 5160 nM

c1ccc(CSc2nnc(-c3cccs3)n2Cc2ccco2)cc1
EC50: 4720 nM

O=C(NCc1ccc(F)cc1)c1ccc(CS(=O)(=O)Cc2ccccc2F)o1
EC50: > 15000 nM (inactive)

COc1ccc(-c2nnc(NC(=O)c3ccc(S(=O)(=O)N4CCCc5ccccc54)cc3)o2)cc1
EC50: 193 nM

CCn1nc(-c2ccccc2)nc2c(=O)n(C)c(=O)nc1-2
EC50: 883 nM

O=C(NC(=S)NNC(=O)c1cc2ccccc2cc1O)c1ccco1
EC50: 1030 nM

CC1CCc2c(sc3ncnc(N4CCOCC4)c23)C1 (stereo unspecified)
EC50: > 16000 nM (inactive)

Cc1cccc(C)c1OCC(=O)NNC(=S)NC(=O)C1CC1
EC50: 950 nM

OCCN1CCN(C(=S)NC2CCCC2)CC1
EC50: > 16000 nM (inactive)

CC(=O)Nc1cccc(NC(=O)Nc2cccc(F)c2)c1
EC50: > 15000 nM (inactive)

Cc1cccc(-n2c(SCc3cc(=O)n4ccsc4n3)nc3ccccc32)c1
EC50: > 15000 nM (inactive)

CC(=O)N1CCOCCOCCN(C(C)=O)CCOCCOCC1
EC50: > 15000 nM (inactive)

O=[N+]([O-])c1ccc(O)c(/C=N/Nc2ccc(Cl)nn2)c1
EC50: 1800 nM

CN1CCN(C(c2ccc(C(F)(F)F)cc2)c2ccc3cccnc3c2O)CC1 (stereo unspecified)
EC50: 883 nM

Oc1nc(Nc2ccccc2)sc1/C=C1\C=Nc2ccccc21
EC50: 1630 nM

COc1cccc(NC(=O)c2ccc3nc(C)sc3c2)c1
EC50: 1490 nM

COc1ccccc1N1CCN(C(=O)c2cc3cc(Cl)ccc3[nH]2)CC1
EC50: > 15000 nM (inactive)

C=C(C)CSc1[nH]c(=O)cc(C)c1C#N
EC50: 1250 nM

Cc1ccc(-n2[nH]c(C)c(/C=N/NC(=O)c3ccc([N+](=O)[O-])cc3)c2=O)c(C)c1
EC50: 3530 nM

Oc1ccc(Cl)cc1C1=NNC(c2cc(Br)cc3c2OCOC3)C1 (stereo unspecified)
EC50: > 16000 nM (inactive)

CCCCC(=O)NNC(=S)NC(=O)c1ccc(C)cc1
EC50: 7760 nM

CCOc1ccc(NC(=S)NNC(=O)c2ccc(Br)cc2)cc1
EC50: 1560 nM

O=C(Nc1ccc(N=Nc2ccccc2)c(NC(=O)C2CCCO2)c1)C1CCCO1 (stereo unspecified)
EC50: 4770 nM

Cc1cccc(Cc2cnc(N3C(=N)SC(C)C3=O)s2)c1 (stereo unspecified)
EC50: > 16000 nM (inactive)

Cc1ccc(SCCC(=O)N/N=C/c2ccccc2O)cc1
EC50: 14000 nM

CC(C)=CCc1c2c(c(O)c3c(=O)c4c(oc13)-c1cc(O)c(O)cc1OC4C=C(C)C)C=CC(C)(C)O2 (stereo unspecified)
EC50: 13000 nM

COc1ccc(C(=O)Oc2c(CN3CCOCC3)cc(Cl)c3cccnc23)cc1
EC50: 9170 nM

O=[N+]([O-])c1cc(CN2CCN(c3ccccc3)CC2)c(O)c2ncccc12
EC50: 335 nM

C=CCn1c(=N)n(CC(=O)c2cccc([N+](=O)[O-])c2)c2ccccc21
EC50: > 16000 nM (inactive)

O=C(Nc1cccc(-c2cn3ccccc3n2)c1)c1cccc(Cl)c1
EC50: 715 nM

Cc1cc(OC(=O)c2ccco2)c2c3c(c(=O)oc2c1)CCCC3
EC50: 953 nM

O=S(=O)(Cc1ccccc1)N1CCc2ccccc21
EC50: 10900 nM

Nc1nonc1-n1nnc(C(=O)N/N=C/c2cc(Br)ccc2O)c1CNc1ccccc1
EC50: 634 nM

O=c1[nH]c(SCc2ccccc2F)nc2ccccc12
EC50: 2120 nM

CCCCCn1c(=O)c(C(=O)NCc2ccncc2)c(O)c2ccccc21
EC50: 1720 nM

CCOc1ccccc1NC(=O)c1cc(S(=O)(=O)N2CCC3(CC2)OCCO3)ccc1F
EC50: > 16000 nM (inactive)

Cc1nnc(NC(=O)c2c(-c3ccccc3Cl)noc2C)s1
EC50: 3080 nM

C#CC[N+](C)(C)CCCCCCCCCCCC
EC50: 8930 nM

COc1cccc(C(C(=O)NC2CCCC2)N(C(=O)c2ccco2)c2ccc(-n3cnnn3)c(C)c2)c1OC (stereo unspecified)
EC50: > 15000 nM (inactive)

Cc1ccc(O)c(C2=NNC(c3ccc(Cl)cc3)C2)c1 (stereo unspecified)
EC50: 395 nM

COc1ccc(C(=O)NC(=S)NNC(=O)CCc2ccccc2)cc1
EC50: 3200 nM

CCN(CC)c1ccc(/C=C/C(=O)c2cccnc2)cc1
EC50: < 120 nM

Cc1ccc(/C=C/C(=O)c2ccccc(=O)c2O)c(C)c1
EC50: 1260 nM

C=CCc1cccc(/C=N/NC(=O)CNc2cccc3ccccc23)c1O
EC50: 3110 nM

O=c1cnnc(N/N=C/c2ccccn2)[nH]1
EC50: 875 nM

CC1CCCCN1S(=O)(=O)c1ccc(NC(=O)c2cccc(-n3cnnn3)c2)cc1 (stereo unspecified)
EC50: > 15000 nM (inactive)

COc1ccc(-n2c(-c3cccc(C)c3[N+](=O)[O-])n[nH]c2=S)cc1
EC50: 316 nM

CCC(=O)NC(c1ccc(C)cc1)c1cc([N+](=O)[O-])c2cccnc2c1O (stereo unspecified)
EC50: 513 nM

CC(=O)Nc1ccc(NC(=O)CSc2ccc3nnc(CCNS(=O)(=O)c4ccc(C)cc4)n3n2)cc1
EC50: > 16000 nM (inactive)

COc1cccc(/C=N/Nc2cc(-n3nc(C)cc3-c3ccccc3)ncn2)c1O
EC50: 662 nM

CCCCNC(=O)c1cn(C)c2ccc(S(=O)(=O)N3CCCC3)cc2c1=O
EC50: > 15000 nM (inactive)

O=C(CCN1CCN(c2ccccc2)CC1)N/N=C/c1ccc(O)c(O)c1O
EC50: 4020 nM

Cc1ccc(OCC(=O)NNC(=S)NC(=O)C2CC2)c(C)c1
EC50: 830 nM

O=C(ONC1=NCCCCC1)c1cccc([N+](=O)[O-])c1
EC50: 969 nM

Oc1ccc(N=Nc2ccc3c(c2)OCCO3)c2cccnc12
EC50: 804 nM

Cc1nn(-c2ccccc2)c(C)c1C(=O)Nc1nnc(-c2ccco2)o1
EC50: 421 nM

CCOc1cc(/C=C(\C#N)C(=O)NCC2CCCO2)ccc1OCC(N)=O (stereo unspecified)
EC50: > 16000 nM (inactive)

CCCc1cc(C(=O)Nc2sc3c(c2C#N)CCC3)no1
EC50: > 15000 nM (inactive)

CCOC(=O)c1c(-c2ccccc2Cl)cn2ccccc12
EC50: 2120 nM

O=C(c1ccc(Cl)cc1)N1CCN(c2ccnc3cc(Cl)ccc23)CC1
EC50: 863 nM

COc1ccc2c(c1)c(/C=C/c1cc[n+](C)cc1)cn2C
EC50: 5950 nM

O=C(Nc1cccc(Cl)c1)Nc1nccs1
EC50: 146 nM

CCc1ccc(C2c3[nH]c4ccccc4c3CCN2C(=O)c2ccc(=O)n(C)n2)cc1 (stereo unspecified)
EC50: 339 nM

Cc1oc2c(F)c(F)c(F)c(F)c2c1S(=O)(=O)Nc1cccc(C(F)(F)F)c1
EC50: 1490 nM

O=C(Nc1nc(-c2ccccn2)cs1)c1ccc(Br)s1
EC50: 1000 nM

c1ccc(CC2CCN(C3=Nc4cccc5cccc3c45)CC2)cc1
EC50: 4400 nM

COc1cc(/C=C/C(=O)Nc2cccnc2)cc(OC)c1OC
EC50: > 16000 nM (inactive)

O=C(Nc1nnc(-c2ccc3c(c2)CCCC3)o1)c1ccc(Cl)cc1Cl
EC50: < 120 nM

CCc1ccc(/C=C2\SC(=S)N(CCCC(=O)Nc3ccccc3C(=O)O)C2=O)cc1
EC50: 304 nM

CC1Oc2cc3oc4c(O)c(O)ccc4c(=O)c3c(O)c2C1(C)C (stereo unspecified)
EC50: 14400 nM

C[C@@H]1CC[C@@]2(NC1)O[C@H]1C[C@H]3[C@@H]4CC=C5C[C@@H](O)CC[C@]5(C)[C@H]4CC[C@]3(C)[C@H]1[C@@H]2C
EC50: 132 nM

CCc1ccc(/C=C2/SC(=S)N(CCCC(=O)Nc3ccccc3C(=O)O)C2=O)cc1
EC50: 982 nM

Cc1scc(C(=O)N/N=C/c2ccc([N+](=O)[O-])o2)c1C
EC50: 884 nM

O=C(Nc1nnc(COc2ccc(F)cc2)s1)c1ccco1
EC50: 7770 nM

COCCSc1nnc(NC(=O)CCS(=O)(=O)c2ccccc2)s1
EC50: 1860 nM

C[C@@H]1C[C@@H]2O[C@H]2/C=C\C=C\C(=O)Cc2c(Cl)c(O)cc(O)c2C(=O)O1
EC50: 234 nM

Cc1ccc(-c2nc3ccc(Cl)cc3c(=O)n2O)cc1
EC50: 2160 nM

O=C(N/N=C\c1c(O)ccc2ccccc12)c1ccc(S(=O)(=O)N2CCCCC2)cc1
EC50: 279 nM

Oc1c(CN2CCN(c3ccccc3)CC2)cc(Br)c2cccnc12
EC50: 1230 nM

O=[N+]([O-])c1ccc(C2CCCC/C2=N/OCc2ccc(F)cc2)c([N+](=O)[O-])c1 (stereo unspecified)
EC50: > 16000 nM (inactive)

COc1cccc(C(=O)Nc2nnc(-c3ccc(F)cc3)o2)c1
EC50: 1690 nM

O=C1/C(=C\c2cccnc2)SC(=S)N1C1CCS(=O)(=O)C1 (stereo unspecified)
EC50: > 16000 nM (inactive)

Cc1nc2c(=O)oc3ccccc3c2n1-c1ccccc1
EC50: 2430 nM

O=C(COc1ccc2c(c1)CCC2)NCc1cccc(Cl)c1
EC50: 10900 nM

CCCCCCc1c(C)nc(-n2[nH]c(C)c(CCO)c2=O)[nH]c1=O
EC50: 1690 nM

CC(C)Cc1nc2oc3c(=O)[nH]cnc3c2c2c1CCCC2
EC50: 297 nM

CCOc1ccc2nc3cc(NCc4ccc(OC)cc4)ccc3c(N)c2c1
EC50: 4280 nM

CCOC(=O)c1cc([N+](=O)[O-])c([N+](=O)[O-])cc1NC(C)=O
EC50: 692 nM

Cc1cc(C(=O)N/N=C/c2cc(Cl)cc([N+](=O)[O-])c2O)c2ccccc2n1
EC50: 2790 nM

Cc1cc(C(=O)NNC(=S)NC(C)c2ccccc2)c2ccccc2n1 (stereo unspecified)
EC50: 3090 nM

Cc1cc(C)n(-c2nc(NCCN(C)C)c3c4c(sc3n2)CCCC4)n1
EC50: 5130 nM

COc1cc2c(cc1NC(=O)c1ccco1)CCCC2
EC50: 1060 nM

CC[n+]1c(C=C2C=C(C)OC(C)=C2)sc2ccccc21
EC50: 2080 nM

CCn1c(O)c(N=NC(=O)c2cccs2)c2ccccc21
EC50: 1320 nM

Cc1ccc(NC2=CC(=O)C(=O)c3ccccc32)cc1
EC50: 451 nM

CC(C)N1CCc2c(sc(NC(=O)c3nc4ccccc4s3)c2C(N)=O)C1
EC50: 239 nM

O=C(/C=C/c1cc(Br)ccc1O)c1ccco1
EC50: 458 nM

O=C(Nc1nnc(-c2ccc3c(c2)CCCC3)o1)c1ccccc1
EC50: 484 nM

NS(=O)(=O)c1ccc(N=Nc2ccc(O)c3ncccc23)cc1
EC50: 1380 nM

O=C1c2ccccc2C(=O)c2c1cccc2N1CCCC1
EC50: > 16000 nM (inactive)

Cc1ccc2nc(-c3ccc(NC(=S)NC4CC(C)(C)NC(C)(C)C4)cc3)sc2c1
EC50: 1900 nM

Cc1noc2ncnc(Sc3ccc(Cl)cc3)c12
EC50: 2930 nM

CC(=O)N(O)CCCCCNC(=O)CCC(=O)N(O)CCCCCNC(=O)CCC(=O)N(O)CCCCCN
EC50: 727 nM

Cc1[nH]c2ccccc2c1C(=O)CCl
EC50: 175 nM

Cc1ccc(C2=NNC3(CCOC(C)(C)C3)S2)cc1 (stereo unspecified)
EC50: 14800 nM

C=CCn1c(O)c(N=NC(=S)Nc2ccccc2C)c2cc(S(=O)(=O)N3CCOCC3)ccc21
EC50: 1190 nM

N#C/C(=C\c1ccc(OC(=O)c2cccs2)cc1)c1nc2ccccc2[nH]1
EC50: 3210 nM

Cc1ccc(NC(=O)CNC(=O)c2ccc(Oc3ccccc3)cc2)nc1
EC50: 440 nM

C/C(=N\NC(=O)CSCc1ccccc1Cl)c1cc(O)ccc1O
EC50: > 16000 nM (inactive)

Oc1ccc(/C=N/n2c(COc3ccccc3)n[nH]c2=S)cc1O
EC50: 16300 nM

Cc1ccc(S(=O)(=O)/N=C2/NC(=O)/C(=C\c3cc(Br)cc(Br)c3O)S2)cc1
EC50: 9680 nM
